Publication PMC10528299, “Targeting FAK/PYK2 with SJP1602 for Anti-Tumor Activity in Triple-Negative Breast Cancer” (Current Issues in Molecular Biology, 2023)

Tests used:
Assay in all cases: Eurofins kinase profiling
Type in all cases: biochemical
PAK1(h) = biological target: T1, PAK1(h) (Homo sapiens, UniProt Q13153); conditions: read-out: residual kinase activity PAK1(h)
T1 construct: purchased Eurofins KinaseProfiler
Method in brief: (§1)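 Each kinase is incubated with compound (1 µM). Activity is then determined radiometrically from transfer of labeled phosphate.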

BRK(h) = biological target: T2, BRK(h) (Homo sapiens, UniProt Q13882); conditions: read-out: residual kinase activity BRK(h)
T2 construct: purchased Eurofins KinaseProfiler
T2 sequence (Q13882 whole entry): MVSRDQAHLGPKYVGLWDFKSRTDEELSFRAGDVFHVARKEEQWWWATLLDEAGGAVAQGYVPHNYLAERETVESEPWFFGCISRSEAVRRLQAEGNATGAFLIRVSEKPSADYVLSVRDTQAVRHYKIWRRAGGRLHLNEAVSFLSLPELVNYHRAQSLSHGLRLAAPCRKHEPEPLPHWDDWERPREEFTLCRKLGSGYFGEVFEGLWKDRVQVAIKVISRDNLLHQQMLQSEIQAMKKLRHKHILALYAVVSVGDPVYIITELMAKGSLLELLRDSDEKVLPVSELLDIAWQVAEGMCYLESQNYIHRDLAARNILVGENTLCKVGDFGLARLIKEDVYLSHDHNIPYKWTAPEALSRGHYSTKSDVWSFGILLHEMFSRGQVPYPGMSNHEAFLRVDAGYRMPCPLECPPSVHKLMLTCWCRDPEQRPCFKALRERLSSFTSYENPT
Method in brief: as §1

MST3(h) = biological target: T3, MST3(h) (Homo sapiens, UniProt Q9Y6E0); conditions: read-out: residual kinase activity MST3(h)
T3 construct: purchased Eurofins KinaseProfiler
T3 sequence (Q9Y6E0 whole entry): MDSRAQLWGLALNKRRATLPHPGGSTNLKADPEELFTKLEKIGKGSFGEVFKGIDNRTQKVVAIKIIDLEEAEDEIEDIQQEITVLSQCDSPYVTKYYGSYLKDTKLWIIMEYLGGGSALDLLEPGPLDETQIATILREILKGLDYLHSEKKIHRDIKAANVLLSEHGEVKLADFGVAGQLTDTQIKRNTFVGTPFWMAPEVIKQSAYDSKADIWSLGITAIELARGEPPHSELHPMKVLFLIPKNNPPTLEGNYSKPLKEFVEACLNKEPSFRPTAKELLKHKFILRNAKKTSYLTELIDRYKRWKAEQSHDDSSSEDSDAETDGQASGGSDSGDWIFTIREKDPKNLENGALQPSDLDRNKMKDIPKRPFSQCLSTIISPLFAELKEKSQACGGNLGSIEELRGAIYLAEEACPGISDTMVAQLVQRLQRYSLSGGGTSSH
Method in brief: as §1

PKCη(h) = biological target: T4, PKCη(h) (Homo sapiens, UniProt P24723); conditions: read-out: residual kinase activity PKCη(h)
T4 construct: purchased Eurofins KinaseProfiler
T4 sequence (P24723 whole entry): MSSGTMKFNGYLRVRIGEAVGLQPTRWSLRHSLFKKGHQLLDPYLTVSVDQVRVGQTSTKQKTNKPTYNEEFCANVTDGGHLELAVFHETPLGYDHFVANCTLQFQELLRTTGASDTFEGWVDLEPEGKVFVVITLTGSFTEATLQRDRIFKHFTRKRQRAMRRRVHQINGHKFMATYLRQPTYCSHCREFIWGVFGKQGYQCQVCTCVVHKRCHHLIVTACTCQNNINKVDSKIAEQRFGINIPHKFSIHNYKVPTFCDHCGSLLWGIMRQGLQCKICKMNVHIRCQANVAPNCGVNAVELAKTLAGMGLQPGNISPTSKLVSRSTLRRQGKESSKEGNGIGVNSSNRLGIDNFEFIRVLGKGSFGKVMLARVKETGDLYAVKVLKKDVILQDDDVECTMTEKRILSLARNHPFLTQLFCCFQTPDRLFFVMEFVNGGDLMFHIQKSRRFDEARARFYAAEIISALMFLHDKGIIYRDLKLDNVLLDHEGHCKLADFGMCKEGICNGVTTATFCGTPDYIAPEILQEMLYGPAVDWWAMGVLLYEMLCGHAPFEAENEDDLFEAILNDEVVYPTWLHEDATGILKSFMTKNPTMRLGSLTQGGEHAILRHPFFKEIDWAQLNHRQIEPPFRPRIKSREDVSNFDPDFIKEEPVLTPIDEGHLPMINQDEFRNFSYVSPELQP
Method in brief: as §1

DYRK2(h) = biological target: T5, DYRK2(h) (Homo sapiens, UniProt Q92630); conditions: read-out: residual kinase activity DYRK2(h)
T5 construct: purchased Eurofins KinaseProfiler
T5 sequence (Q92630 1-601): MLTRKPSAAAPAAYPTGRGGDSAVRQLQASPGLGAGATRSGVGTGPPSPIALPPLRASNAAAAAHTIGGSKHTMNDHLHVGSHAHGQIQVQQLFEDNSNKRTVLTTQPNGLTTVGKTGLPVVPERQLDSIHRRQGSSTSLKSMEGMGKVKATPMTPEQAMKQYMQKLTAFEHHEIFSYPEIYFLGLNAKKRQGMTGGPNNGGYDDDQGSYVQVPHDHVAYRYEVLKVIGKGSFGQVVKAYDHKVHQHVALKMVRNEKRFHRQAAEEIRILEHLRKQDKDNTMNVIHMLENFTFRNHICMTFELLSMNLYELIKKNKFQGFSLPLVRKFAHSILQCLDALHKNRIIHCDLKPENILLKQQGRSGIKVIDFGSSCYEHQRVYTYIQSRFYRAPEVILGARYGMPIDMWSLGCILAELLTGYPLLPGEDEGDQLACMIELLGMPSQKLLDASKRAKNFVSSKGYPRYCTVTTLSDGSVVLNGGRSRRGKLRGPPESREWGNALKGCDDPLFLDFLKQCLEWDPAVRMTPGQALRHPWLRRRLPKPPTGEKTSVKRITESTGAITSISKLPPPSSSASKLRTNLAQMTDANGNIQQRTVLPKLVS
Method in brief: as §1

Mer(h) = biological target: T6, Mer(h) (Homo sapiens, UniProt Q12866); conditions: read-out: residual kinase activity Mer(h)
T6 construct: purchased Eurofins KinaseProfiler
T6 sequence (Q12866 21-999): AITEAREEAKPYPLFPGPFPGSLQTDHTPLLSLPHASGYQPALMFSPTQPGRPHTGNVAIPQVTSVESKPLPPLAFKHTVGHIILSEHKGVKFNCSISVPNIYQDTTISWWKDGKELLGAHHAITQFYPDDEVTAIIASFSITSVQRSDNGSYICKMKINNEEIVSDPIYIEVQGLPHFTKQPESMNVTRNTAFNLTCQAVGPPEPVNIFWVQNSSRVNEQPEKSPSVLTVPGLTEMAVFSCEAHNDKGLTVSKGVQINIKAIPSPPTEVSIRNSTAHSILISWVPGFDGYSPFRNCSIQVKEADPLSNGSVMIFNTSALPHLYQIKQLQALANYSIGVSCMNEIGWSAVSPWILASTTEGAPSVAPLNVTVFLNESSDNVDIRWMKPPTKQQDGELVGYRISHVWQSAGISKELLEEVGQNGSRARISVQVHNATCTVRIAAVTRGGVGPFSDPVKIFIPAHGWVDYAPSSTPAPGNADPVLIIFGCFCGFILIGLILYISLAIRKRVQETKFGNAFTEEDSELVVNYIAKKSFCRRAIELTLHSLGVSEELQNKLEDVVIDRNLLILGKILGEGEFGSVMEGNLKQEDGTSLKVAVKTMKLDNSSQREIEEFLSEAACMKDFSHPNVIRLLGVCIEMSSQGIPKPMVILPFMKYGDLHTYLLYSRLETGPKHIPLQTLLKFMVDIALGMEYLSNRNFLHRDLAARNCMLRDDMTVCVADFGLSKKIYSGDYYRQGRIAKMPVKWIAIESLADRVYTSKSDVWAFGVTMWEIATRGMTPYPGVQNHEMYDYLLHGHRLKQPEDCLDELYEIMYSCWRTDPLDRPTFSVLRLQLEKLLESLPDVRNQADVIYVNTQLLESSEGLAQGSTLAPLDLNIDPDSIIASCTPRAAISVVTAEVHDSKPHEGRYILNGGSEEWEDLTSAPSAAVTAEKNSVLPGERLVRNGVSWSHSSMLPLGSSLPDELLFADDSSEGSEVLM
Method in brief: as §1

B-Raf(h) = biological target: T7, B-Raf(h) (Homo sapiens, UniProt P15056); conditions: read-out: residual kinase activity B-Raf(h)
T7 construct: purchased Eurofins KinaseProfiler
T7 sequence (P15056 whole entry): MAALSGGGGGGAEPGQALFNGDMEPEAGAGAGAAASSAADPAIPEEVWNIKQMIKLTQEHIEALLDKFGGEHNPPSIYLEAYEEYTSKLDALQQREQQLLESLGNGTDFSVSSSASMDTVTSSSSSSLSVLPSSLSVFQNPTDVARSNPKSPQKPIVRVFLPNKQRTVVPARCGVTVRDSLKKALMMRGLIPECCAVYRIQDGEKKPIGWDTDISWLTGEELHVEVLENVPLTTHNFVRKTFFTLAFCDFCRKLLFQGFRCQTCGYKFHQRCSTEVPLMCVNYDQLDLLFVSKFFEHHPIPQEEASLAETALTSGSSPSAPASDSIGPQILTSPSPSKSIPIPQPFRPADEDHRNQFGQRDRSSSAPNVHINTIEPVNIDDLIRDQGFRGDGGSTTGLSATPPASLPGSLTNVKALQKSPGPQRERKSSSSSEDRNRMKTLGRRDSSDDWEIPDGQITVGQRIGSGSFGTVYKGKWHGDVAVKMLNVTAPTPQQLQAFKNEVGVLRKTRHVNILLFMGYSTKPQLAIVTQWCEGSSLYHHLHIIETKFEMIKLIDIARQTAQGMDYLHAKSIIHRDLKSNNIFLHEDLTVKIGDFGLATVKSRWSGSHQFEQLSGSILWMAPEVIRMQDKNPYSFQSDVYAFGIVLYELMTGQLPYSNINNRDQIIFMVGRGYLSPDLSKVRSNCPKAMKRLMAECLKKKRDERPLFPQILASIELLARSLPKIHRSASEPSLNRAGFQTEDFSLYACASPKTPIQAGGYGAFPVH
Method in brief: as §1

T1 sequence (Q13153 whole entry): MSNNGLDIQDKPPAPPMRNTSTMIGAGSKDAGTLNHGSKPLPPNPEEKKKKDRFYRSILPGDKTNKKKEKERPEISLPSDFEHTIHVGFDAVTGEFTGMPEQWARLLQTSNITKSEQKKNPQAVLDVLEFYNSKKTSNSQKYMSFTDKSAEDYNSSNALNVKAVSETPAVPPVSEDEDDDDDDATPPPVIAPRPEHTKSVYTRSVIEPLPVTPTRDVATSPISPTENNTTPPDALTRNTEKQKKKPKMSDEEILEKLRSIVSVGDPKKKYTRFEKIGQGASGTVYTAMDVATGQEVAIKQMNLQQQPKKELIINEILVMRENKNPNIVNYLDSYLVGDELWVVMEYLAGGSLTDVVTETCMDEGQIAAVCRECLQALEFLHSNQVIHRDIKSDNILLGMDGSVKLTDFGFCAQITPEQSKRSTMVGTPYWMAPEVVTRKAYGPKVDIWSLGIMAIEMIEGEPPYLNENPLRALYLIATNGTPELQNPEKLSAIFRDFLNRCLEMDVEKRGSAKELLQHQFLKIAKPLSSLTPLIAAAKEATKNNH

Structure (SMILES) | remaining activity at 1 µM (PAK1(h)) [%] | remaining activity at 1 µM (BRK(h)) [%] | remaining activity at 1 µM (MST3(h)) [%] | remaining activity at 1 µM (PKCη(h)) [%] | remaining activity at 1 µM (DYRK2(h)) [%] | remaining activity at 1 µM (Mer(h)) [%] | remaining activity at 1 µM (B-Raf(h)) [%]
CNC(=O)c1ccc(Nc2ncc(C(F)(F)F)c(NCc3nccnc3N(C)S(C)(=O)=O)n2)cc1 [VS-6063, Defactinib] | 79 | 91 | 33 | 104 | 80 | 7 | 83
CONC(=O)c1ccccc1Nc1cc(Nc2cc(C)nn2C(C)C)ncc1Cl [GSK2256098] | 91 | 67 | 102 | 97 | 52 | 97 | 99
CNC(=O)c1cccc(C)c1Nc1nc(Nc2ccc(N3CCN(C4C5CC6CC4CC(O)(C6)C5)CC3)cc2OC)ncc1C(F)(F)F (stereo not drawn) [SJP1602, 2-((2-((4-(4-((2s,5r)-5-hydroxyadamantan-2-yl)piperazin-1-yl)-2-methoxyphenyl)amino)-5-(trifluoromethyl)pyrimidin-4-yl)amino)-N,3-dimethylbenzamide] | 119 | 109 | 95 | 95 | 97 | 60 | 93
